Test results as given in patent publication US9072691B2, “Nutritional supplement for disinhibiting therapy of psychiatric patients” (priority 2012, dated 2015).

Assays:
[1] = cited from earlier work
[2] = Individual components administered separately from the other components; type: in vivo, human; settings: administered separately from the other components of the invention
Description: Thus, the invention is named “Formula of activity”. The invention offers methods of treating patients who refuse food and can die as a result. […] It is possible that this new effect is produced by a new substance that is formed as a result of the interaction of the components of the invention with each other or with other naturally occurring substances in the body. The components may exert their effect by through the reticular formation in the brain, which is the regulating center of different brain functions. The reticular formation coordinates the interactions between all structures of the brain. It analyzes and corrects the functions of the brain structures and ensures their proper hierarchical dependencies, as well as the readiness of the central nervous system to perform its functions.

[3] = Effect of composition on selected patients and disorders (case reports); type: in vivo, human
Description: The following are several of many patients who were successfully treated by the invention.

Molecule: CCC1(CCC(C)C)C(=O)N=C([O-])NC1=O.[Na+] (stereo not shown) [Barbamyl]
- Dependency on repeated injections [1]: lead to psychological and physiological dependency on this substance

Molecule: O=S(=O)([O-])[O-].[Mg+2] [Magnesium sulfate, magnesium sulfate]
- Stimulating or disinhibiting effect / effect on appetite when administered alone [2]: does not lead to a desired stimulating or disinhibiting effect

Molecule: CN1CCN(CCCN2c3ccccc3Sc3ccc(C(F)(F)F)cc32)CC1 [Stelazine]
- Clinical outcome ([3]; Patient N, postpartum psychosis, 5 mg once per day first week, then 1 mg two times a day): improved regarding their condition and delusional ideas; however they remained apathetic, fatigued and indifferent

Molecule: O=S(=O)([O-])CC(S)CS.[Na+] (stereo not shown) [Unithiol]
- Stimulating or disinhibiting effect / effect on appetite when administered alone [2]: does not lead to a desired stimulating or disinhibiting effect

Molecule: CN(C)CCCN1c2ccccc2Sc2ccc(Cl)cc21 [aminazine]
- Effect after administration ([3]; Patient B, paranoid schizophrenia, after disinhibition, 50 mg intravenously): the patient fell asleep

Molecule: CN1C(=O)CN=C(c2ccccc2)c2cc(Cl)ccc21 [valium]
- Sleep ([3]; Patient S, closed head trauma, before the course of the invention, injection): they would fall asleep only after injection of valium

Molecule: calcium pantothenate
- Stimulating or disinhibiting effect / effect on appetite when administered alone [2]: does not lead to a desired stimulating or disinhibiting effect
